Reference: patent publication US20220389377A1, “TREATMENT OF MEDICAL CONDITIONS BY STEM CELL TRANSPLANTS AND STEM CELL ACTIVATION” (Vitro Biopharma, Inc., priority 2021, published 2022)
Read-outs that look alike come from different tables or passages of the source.

Legend:
human MSCs [1] = test: cells; details: for effect on MSC migration induced by curcumin and quercetin / effect on MSC migration induced by curcumin and resveratrol: 20 μM AMD3100 or 15 μM GM6001; for effect on MSC migration induced by Li-VPA: both AMD 3100 and GM6001 present; for EC50: Homo sapiens
Description: (§1) FIG. 1 is a microphotograph depicting cell migration using fluorescent readout and cell tracker green as a fluorescent marker of human UC-MSCs. […] The EC50 was determined as a measure of effectiveness of activating agents. […] An initial analysis of the cell free zone using Image J software was used to screen concentrations of activating agents for dose-response determination in further experiments.
(§2) The cell migration assays described above were set up as follows: One million cells/cell line were resuspended in 10 mL MSC-Gro™ serum free, quiescent medium (Vitro Biopharma Cat. No. SCO0B17) containing 5 μg/mL mitomycin C (Sigma, Cat. No. M4287) to inhibit proliferation and incubated for 2 hours at room temperature with end-to-end agitation at 7 RPM.
In some experiments, curcumin was used at 1 μM to block proliferation. Cells were centrifuged (450×g) for 7 minutes, washed with PBS and then resuspended in 1 mL MSC-Gro™ low serum, complete medium (Vitro Biopharma Cat. No. SCO0B1) and plated at 25,000 cells/well in black 96 well, TC-coated cell culture plates (ThermoScientific, Cat. No. 165305) containing cell seed-stoppers (Platypus, Cat. No. CMAUFL4) to form a cell free zone at the center of the well and incubated in 5% CO2, 1% O2, 94% N2 at 37° C. in a humidified chamber for 24 hrs. Plates used for culture of NSCs were first treated with 10 μg/mL fibronectin (Sigma, Cat. No. F0556) for 2 hours at 37° C. Following washout with PBS (3×), cell seed stoppers were inserted, NSCs were plated at 25,000/well and incubated in 5% CO2, 1% O2, 94% N2 at 37° C. in a humidified chamber for 48 hrs.
For studies of the effects of CXCR4 and MMP-9 inhibition following 24 hours of cell culture, appropriate wells were dosed with 15 μM GM6001 and 20 μM AMD3100 for 6 hours. Cells were washed once with PBS then incubated in serum free, MSC-Gro™ (Vitro Biopharma Cat. No. SCO0B17) containing 5 μM Cell Tracker Green CIVIFDA (Molecular Probes, Cat. No. C7025) at 37° C. for 30 minutes. The wells were then washed with serum free, MSC-Gro™ (Vitro Biopharma Cat. No. SCO0B17) and incubated for 30 minutes at 37° C. Cells were washed once with PBS and this was replaced with MSC-Gro™ serum free, quiescent medium (Vitro Biopharma Cat. No. SCO0B17) containing different concentrations of activating agents. […] A TopSeal (PerkinElmer, Cat. No. 6050195) covered the plate for live-cell imaging in a BioTek Cytation3 imaging reader. Kinetic data was acquired every 2 hrs for 24 hrs using a GFP filter and bright field data acquisition. The gas phase throughout the acquisition of kinetic data was 5% O2, 5% CO2 with the balance nitrogen maintained by a BioTek CO2/O2 gas controller. Images were saved as TIFF files to calculate percent closure using imaging data.

human MSCs [2] = test: Gene expression analysis by qPCR in human MSCs; assay type: cell-based; details: for expression levels of FGF-21, CXCR4 and Hsp70 / expression of Oct 3/4 / expression of SIRT-1: 250 μM VPA, 500 nM curcumin, FIG. 13
Description: Beta actin was measured as a house-keeping gene. […] Gene expression was quantified by determining the amount of gene-specific DNA/total cDNA. Data is mean+/−SD of 4 replicates.
Native human umbilical cord-derived MSCs (Vitro Biopharma Cat. No. SC00A1) were expanded from cryopreservation in T-25 TC-coated flasks (BD Falcon, Cat. No. 353108) in MSC-Gro™ low serum, complete medium (Vitro Biopharma Cat. No. SCO0B1). Cells were sub-cultured and counted on a Beckerman-Coulter Z2 particle counter (range 10 μm-30 μm). Cells were plated at 10,000/cm^2 a TC-coated Greiner Bio-One T75 flask and maintained in MSC-Gro™ serum free, complete medium (Vitro Biopharma Cat. No. SCO0B3) in a reduced O2 environment (1% O2, 5% CO2, 94% N2) at 37° C. in a humidified chamber. The MSCs were treated continuously for up to 2 weeks. Cultures were fed every 3 days. Cells were harvested using Accutase (Innovative Cell Technologies Inc., Cat No AT-104) and centrifuged (450×g) for 7 minutes. Cell supernatant was aspirated off and cells were resuspended in 1 mL PBS and counted on a Beckerman-Coulter Z2 particle counter (range 10 μm-30 μm). Total RNA was extracted using RNeasy mini kit (Qiagen Cat. No. 74104). RNA was quantified using an absorbance measurement at 260 nm. RNA was converted to cDNA using Quantitect reverse transcription kit (Qiagen Cat. No. 205310) in a thermocycler. RNA was incubated in the gDNA elimination reaction for 2 minutes at 42° C. then incubated in the reverse-transcription master mix for 15 minutes at 42° C. Immediately after, it was incubated at 95° C. for 3 minutes for inactivation. cDNA was sent to an outside lab (CU-Anschutz Metabolic Laboratory) for q-PCR to detect relative or absolute gene expression levels. cDNA was diluted 1:5 and an iTaq Universal Supermix fluorescent probe (BioRad Cat. No. 172-5120) used to detect the threshold cycle (Ct) during PCR Dilution factors and cDNA concentrations were calculated into recorded values then normalized to untreated hMSCs (Vitro Biopharma Cat. No. SC00A1).
Gene expression was quantified by determining the amount of gene-specific DNA/total cDNA. Data is mean+/−SD of 4 replicates.
Native human umbilical cord-derived MSCs (Vitro Biopharma Cat. No. SC00A1) were expanded from cryopreservation in T-25 TC-coated flasks (BD Falcon, Cat. No. 353108) in MSC-Gro™ low serum, complete medium (Vitro Biopharma Cat. No. SCO0B1). Cells were sub-cultured and counted on a Beckerman-Coulter Z2 particle counter (range 10 μm-30 μm). Cells were plated at 10,000/cm2 a TC-coated Greiner Bio-One T75 flask and maintained in MSC-Gro™ serum free, complete medium (Vitro Biopharma Cat. No. SCO0B3) in a reduced O2 environment (1% O2, 5% CO2, 94% N2) at 37° C. in a humidified chamber. The MSCs were treated continuously for up to 2 weeks. Cultures were fed every 3 days. Cells were harvested using Accutase (Innovative Cell Technologies Inc., Cat No AT-104) and centrifuged (450×g) for 7 minutes. Cell supernatant was aspirated off and cells were resuspended in 1 mL PBS and counted on a Beckerman-Coulter Z2 particle counter (range 10 μm-30 μm).
Total RNA was extracted using RNeasy Mini Kit (Qiagen Cat. No. 74104). RNA was quantified using an absorbance measurement at 260 nm. RNA was converted to cDNA using Quantitect reverse transcription Kit (Qiagen Cat. No. 205310) in a thermocycler. RNA was incubated in the DNA elimination reaction for 2 minutes at 42° C. then incubated in the reverse-transcription master mix for 15 minutes at 42° C. Immediately after, it was incubated at 95° C. for 3 minutes for inactivation. cDNA was sent to an outside lab (CU-Anschutz Metabolic Laboratory) for q-PCR to detect relative or absolute gene expression levels. cDNA was diluted 1:5 and an iTaq Universal Supermix fluorescent probe (BioRad Cat. No. 172-5120) was used to detect the threshold cycle (Ct) during PCR.

human fibroblast = details: read-out: EC50 of human fibroblast migration induced by Substance P (prior study); suspension culture system; Parenti et al. 1996; cited from earlier work
MSCs = test: Presto Blue proliferation assay, MSCs; assay type: cell-based; details: Homo sapiens
Description: (§3) Example 5: Effects of lithium and VPA on stem cell proliferation: The effects of lithium and VPA on stem cell proliferation were then investigated using an assay based on Presto Blue, a fluorescent marker of cellular reduction. FIG. 8 is a line graph representation illustrating proliferation of different cell lines induced by increasing concentrations of FGF-b (FGF-2) after a 5 day exposure. Relative fluorescent units were measured using a FITC filter on a Modulus microplate reader and plotted as a function of FGF-2. The data was modeled by sigmoidal curve fitting to calculate EC50 values. […] Proliferation of these mesenchymal cells was stimulated by recombinant human FGF-2 with EC50 values in the range of 3 to 6 ng/ml with maximal proliferative responses at about 10 ng/ml.
The proliferative effects of lithium and VPA were compared, either alone or in combination to MSC proliferation. The results are shown in FIG. 9, which is a line graph representation illustrating proliferation of MSCs induced by lithium, VPA and VPA in 200 μM lithium after a 5 day exposure. Relative fluorescent units were measured using a FITC filter on a Modulus microplate reader and plotted as a function of FGF-2. The data was modeled by sigmoidal curve fitting to calculate EC50 values.

human NSCs = test: Cell migration assay, human NSCs; assay type: cell-based; details: read-out: EC50 of VPA for NSC migration in 200 μM lithium, increasing VPA in 200 μM lithium, FIG. 6
Description: as §1, §2
In some experiments, curcumin was used at 1 μM to block proliferation. […]
For studies of the effects of CXCR4 and MMP-9 inhibition following 24 hours of cell culture, appropriate wells were dosed with 15 μM GM6001 and 20 μM AMD3100 for 6 hours. […] A TopSeal (PerkinElmer, Cat. No. 6050195) covered the plate for live-cell imaging in a BioTek Cytation3 imaging reader. […]

NSCs = test: Presto Blue proliferation assay, NSCs; assay type: cell-based; details: Homo sapiens, 120 h, read-out: EC50 of VPA for NSC proliferation in 200 μM lithium, 5 day exposure, FIG. 10
Description: as §3
The proliferative responses of MSCs and NSCs were compared to Li-VPA. The results are shown in FIG. 10, which is a line graph representation illustrating proliferation of MSCs and NSCs as a function of increasing VPA in 200 μM lithium after a 5 day exposure. Relative fluorescent units were measured using a FITC filter on a Modulus microplate reader and plotted as a function of FGF-2. The data was modeled by sigmoidal curve fitting to calculate EC50 values. […] This may reflect intrinsic proliferative capacity. […]

[3] = tested on: CAFs, primary fibroblasts and MSCs; test: Presto Blue proliferation assay, CAFs, primary fibroblasts and MSCs (FGF-2 validation); assay type: cell-based, human; details: 5 day exposure
Description: as §3

[4] = Example 6, 31.25 μM VPA, 200 μM lithium, FIG. 11

c1cc(CN2CCCNCCNCCCNCC2)ccc1CN1CCCNCCNCCCNCC1 [AMD3100]
effect on VPA-induced MSC migration (human MSCs [1]; 20 μM AMD3100, CXCR4 inhibitor, FIG. 7): blocked | effect on MSC migration induced by curcumin and quercetin (human MSCs [1]; FIG. 14): blocked MSC migration | effect on MSC migration induced by curcumin and resveratrol (human MSCs [1]; FIG. 15): blocked MSC migration | effect on MSC migration induced by Li-VPA (human MSCs [1]; FIG. 7): blocked

CNC(=O)[C@H](Cc1c[nH]c2ccccc12)NC(=O)[C@@H](CC(=O)NO)CC(C)C [GM6001]
effect on lithium-induced MSC migration (human MSCs [1]; 15 μM GM6001, MMP-9 inhibitor, FIG. 7): blocked | effect on MSC migration induced by curcumin and quercetin (human MSCs [1]; FIG. 14): blocked MSC migration | effect on MSC migration induced by curcumin and resveratrol (human MSCs [1]; FIG. 15): blocked MSC migration | effect on MSC migration induced by Li-VPA (human MSCs [1]; FIG. 7): blocked

CCCC(=O)[O-].[Na+] [Na butyrate]
expression levels of FGF-21, CXCR4 and Hsp70 (human MSCs [2]; Example 8): lower levels | expression of Oct 3/4 (human MSCs [2]; Example 8): less expression activation | expression of SIRT-1 (human MSCs [2]; Example 8): significantly less effective

CSCC[C@H](NC(=O)[C@H](CC(C)C)NC(=O)CNC(=O)[C@H](Cc1ccccc1)NC(=O)[C@H](Cc1ccccc1)NC(=O)[C@H](CCC(N)=O)NC(=O)[C@H](CCC(N)=O)NC(=O)[C@@H]1CCCN1C(=O)[C@H](CCCCN)NC(=O)[C@@H]1CCCN1C(=O)[C@@H](N)CCCNC(=N)N)C(N)=O [Substance P]
MSC migration into cell-free center of the well (human MSCs [1]; 3.7 nM Substance P, 24 hours): induced MSC migration into the cell-free center of the well | MSC migration (percent closure) dose-response (human MSCs [1]; Substance P from 0 to 18.5 nM, 24-hour live cell analysis): migration increased in a dose-dependent manner | EC50 (human fibroblast): 0.0022 µM

CC(/C=C/C(=O)NO)=C\[C@@H](C)C(=O)c1ccc(N(C)C)cc1 [TSA]
expression levels of FGF-21, CXCR4 and Hsp70 (human MSCs [2]; Example 8): lower levels | expression of Oct 3/4 (human MSCs [2]; Example 8): less expression activation | expression of SIRT-1 (human MSCs [2]; Example 8): significantly less effective

CCCC(CCC)C(=O)O [VPA, valproic acid]
EC50 (human MSCs [1]; read-out: EC50 of MSC migration, agent alone, percent closure, sigmoidal curve fit, FIG. 5): 38.5 µM | EC50 (human MSCs [1]; read-out: EC50 of VPA for MSC migration in 200 μM lithium, increasing VPA in 200 μM lithium): 33 µM | concentration of maximal migration / maximum closure (human MSCs [1]; agent alone, FIG. 5): 100 µM | expression of Oct 3/4 compared to untreated human MSCs (human MSCs [2]; [4]): about 20 fold | expression of SIRT-1 compared to untreated MSC (human MSCs [2]; [4]): ~300 fold | expression of Oct 3/4 (human MSCs [2]; Example 8): about 20 fold | expression of SIRT-1 (human MSCs [2]; Example 8): ~300 fold | EC50 (MSCs; 200 μM lithium, MSCs and NSCs, proliferation and migration, read-out: VPA concentration 50% effective in inducing cell proliferation and migration (mean)): 37 µM | EC50 (MSCs; 200 μM lithium, MSCs and NSCs, proliferation and migration, read-out: VPA concentration 50% effective in inducing cell proliferation and migration (range)): 35 to 39 µM | EC50 (MSCs; 120 h, 5 day exposure, FIG. 9, read-out: EC50 of MSC proliferation, agent alone): 47.7 µM | EC50 (MSCs; 120 h, read-out: EC50 of VPA for MSC proliferation in 200 μM lithium, 5 day exposure, 200 μM lithium): 63.3 µM | EC50 (human NSCs): 35.2 µM | EC50 (NSCs): 36.8 µM

COc1cc(/C=C/C(=O)CC(=O)/C=C/c2ccc(O)c(OC)c2)ccc1O [curcumin]
EC50 (human MSCs [1]; 36 h, read-out: apparent EC50 of curcumin-induced migration, MSCs, percent closure after 36-hour run): 0.25 µM | concentration at which curcumin induced migration (human MSCs [1]; human MSCs, 36-hour run): less than 1 μM | estimated LD50 (apparent toxicity, reduced cell number) (human MSCs [1]; human, 36 h): 3 µM | expression of Oct 3/4, SIRT-1, FGF21, CXCR4 and Hsp70 as compared to VPA (human MSCs [2]; Example 8, 500 nM curcumin vs 250 μM VPA): equivalent or increased expression | expression of Oct 3/4 (human MSCs [2]; Example 8): about 20 fold | expression of SIRT-1 (human MSCs [2]; Example 8): ~300 fold

O=c1c(O)c(-c2ccc(O)c(O)c2)oc2cc(O)cc(O)c12 [quercetin]
EC50 (human MSCs [1]; read-out: EC50 of quercetin for MSC migration in 500 nM curcumin, 500 nM curcumin, FIG. 14): 0.317 µM

Oc1ccc(C=Cc2cc(O)cc(O)c2)cc1 [resveratrol]
EC50 (human MSCs [1]; read-out: EC50 of resveratrol for MSC migration in 500 nM curcumin, 500 nM curcumin, FIG. 15): 0.253 µM

CCCCC(=O)O [valeric acid]
expression levels of FGF-21, CXCR4 and Hsp70 (human MSCs [2]; Example 8): lower levels | expression of Oct 3/4 (human MSCs [2]; Example 8): less expression activation | expression of SIRT-1 (human MSCs [2]; Example 8): significantly less effective

FGF-2: recombinant human FGF-2, member of the family of fibroblast growth factors
concentration of maximal proliferative responses [3]: about 10 ng/ml
